For data set [1], the system named is GAL4×10-Luciferase vector pCGS206. Description: Tobacco BY2 suspension cells bombarded with receptor vector and GAL4x10-Luciferase vector, GUS-normalized luciferase. Format: cell-based, Nicotiana tobaccum L. cv. Bright Yellow 2. Particulars: absence of the EcR receptor. The procedure: The GAL4-MV expression vector pCGS432 and the GAL4×10-Luciferase vector pCGS206 are simultaneously delivered into BY2 suspension cells (Nicotania tobacum L. cv. Bright Yellow 2) by high velocity microprojectile bombardment. A β-glucuronidase (GUS) vector is included as an internal control for transfection efficiency between samples. Transfected cells are incubated overnight in the presence and absence of the appropriate chemical ligand (tebufenozide (Teb), RH5889) in BY2 liquid culture media. After incubation, the cells are harvested and lysed by mechanical disruption. Cellular debris is removed by centrifugation at 20,800 g at 4° C. for 10 minutes. Cell lysates are assayed for luciferase expression levels using the Promega Luciferase Kit (Promega cat #E1500) using a Turner Designs TD 20/20 luminometer. GUS expression levels are determined using the GUS-Light kit (Tropix). […]
The GAL4-Manduca EcR-C1 expression vectors (pCGS441, pCGS442, and pCGS443) and the GAL4×10-Luciferase vector pCGS206 (Example 10) are simultaneously delivered into BY2 suspension cells (Nicotiana tobaccum L. cv. Bright Yellow 2) by high velocity microprojectile bombardment. […] Cell lysates are assayed for luciferase expression levels using the Promega Luciferase Kit (cat #E1500) using a Turner Designs TD 20/20 luminometer. β-glucuronidase expression levels are determined using the GUS-Light kit (Tropix). […]

Data set [2] has as its system Transgenic maize plants containing pCGS601 and pCGS202. Description: Chemical induction of transgenic maize plants, luciferase activity of leaf extract. In kind it is in vivo. The procedure: A formulation mixture containing 10% of a 2.0 mM tebufenozide solution in ethanol and 1% surfactant is applied directly to the leaves of the transgenic maize plants. The solution is left on the leaves between 18 and 40 hours. Leaves are then frozen in liquid nitrogen and ground to a powder. Subsequently, leaves are homogenized in cell culture lysis reagent (CCLR; 25 mM Tris-phosphate pH 7.8, 2 mM DTT, 2 mM 1,2-diaminoclyclohexane-N,N,N′,N′-tetraacetic acid, 10% glycerol, and 1% triton X-100). After spinning for 7 minutes at 14,000 g to pellet the cell debris, 20 μl of the supernatant is assayed for luciferase activity by the standard method (as described in the preceding examples).
Six plants are treated with chemistry: three with ethanol as control and three with tebufenozide. After 40 hours, plants are assayed for luciferase activity.
To determine fold induction with tebufenozide, leaves of individual plants are compared for activity. Using the same plant, one leaf is treated with ethanol and another with tebufenozide. The plants are incubated for 18 hours and assayed for luciferase activity as described above.

Data set [3] deals with Transgenic plants harboring DNA from the plasmids pCGS202 and pCGS601. Nature of the data set: Chemical induction of transgenic maize plants, photon emission of leaves after luciferin spray. Format: in vivo. On the procedure:
This mixture is applied directly to one leaf of a plant while a control formulation mixture containing ethanol instead of tebufenozide is applied to another leaf. Treatments are left on the leaves between 24-48 hours. Plants are then treated by spraying the leaves with a mixture containing 7.5 mM luciferin and 1% surfactant and incubating for 5 minutes. Either whole plants or tissues are placed into a dark box and photon emission is monitored using a digital camera and software that counts the accumulated photons that are emitted. Both the image of the tissue and the total photon count is recorded.
Plants at V5 stage are treated as above. The plants treated with tebufenozide emit substantial amounts of light compared with those treated with ethanol only. The table below contains actual counts of leaf samples from maize plants transformed with pCGS601 and pCGS202.
Late stage post pollinated maize plants are also treated as above. Leaves are analyzed as above and the total photon counts are recorded in the table below.

The next data set relates to pCGS154 reporter. Nature of the data set: Transient transfection of S2 Drosophila cells with luciferase reporter and EcR receptor plasmids. Particulars: for Fold Activation With Chemistry Assay #1 / Fold Activation With Chemistry Assay #2: Example 8, 0.2 μM tebufenozide; for Fold Activation With Chemistry: Example 9, 0.2 μM tebufenozide. In kind it is cell-based. The procedure:
An in vivo cell based assay is designed to measure transcriptional activation by the receptors of a reporter plasmid. S2 Drosophila cells (ATCC CRL-1963) are transiently transfected with luciferase reporter and receptor expression plasmids using the calcium phosphate precipitation procedure (Di Nocera and David (1983) PNAS 80, 7095-7098). S2 cells are plated in 96 well format at a density of 2×10^5 in 166.6 μl of Schneider's Drosophila media supplemented with antibiotics and 10% heat inactivated fetal bovine serum (GIBO-BRL). The following day, 33.4 μl of a calcium phosphate precipitate containing 3-6 ng of pCGS154 reporter plasmid, 3-6 ng of EcR receptor plasmid along with salmon sperm DNA to a total of 400 ng DNA per well is added. Chemical ligands are added 16-24 hours after DNA addition to the cells. Cells are then harvested and extracted 24 hours after chemistry addition following the procedures for the luciferase assay by centrifuging and resuspending the cell pellets in 100 μl of cell culture lysis reagent (Promega). Luciferase activity is quantitated using chemiluminescence (Promega) using an analytical luminescence model 2001 luminometer.
S2 cells contain Drosophila EcR and USP. The endogenous USP can be used as the heterodimerization partner for EcR or exogenous USP expression plasmid can be added to the assay.
To compare the activities of Manduca and Drosophila EcR, S2 cells are transiently transfected using the above procedure with the reporter plasmid pCGS 154 and either full-length Drosophila EcR, DDV, full-length Manduca EcR, or MMV. Tebufenozide at 0.2 µM and 2 μM is used as the chemical ligand. Luciferase assays are performed as described above. All of the results are normalized as a ratio of activity to the light unit value for the pCGS154 reporter without chemistry.
The activities of the EcR-VP16 chimeras are compared by transiently transfecting S2 cells as described in Example 3. Tebufenozide is added to the cells at 0.2 μM concentration. Results are expressed as fold activation, a ratio of the activity of the constructs with chemistry added as compared to activity of the constructs without chemistry. All results are normalized to the luciferase activity of the pCGS154 reporter without receptor addition.
The activities of the EcR-VP16 chimeras are compared by transiently transfecting S2 cells as in Example 3. Tebufenozide is added to the cells at 0.2 μM concentration. Results are expressed as fold activation of constructs with chemistry as compared to without chemistry. All results are normalized to the luciferase activity of the pCGS154 reporter without receptor.
The activities of the EcR-VP16 chimeras are compared by transiently transfecting S2 cells as in Example 3. Tebufenozide is added to the cells at 0.2 μM concentration. Results are expressed as fold activation of constructs with chemistry as compared to without chemistry addition. All results are normalized to the luciferase activity of the pCGS154 reporter without receptor.
On the technique in general: A reporter such as luciferase makes a cellular process visible.

Several values for one entry are separate records, joined by “and”; a condition that tells them apart may be missing. Equal values may be shown once.

Regarding `CCc1ccc(C(=O)NN(C(=O)c2cc(C)cc(C)c2)C(C)(C)C)cc1` [tebufenozide], the “activation of the luciferase reporter without receptor” value in data set [1] is “does not activate the reporter in the absence of the EcR receptor”. Besides, the “Activity (luciferase)” value in data set [2] (leaves treated with 10% of 2.0 mM tebufenozide solution, 1% surfactant, 40 hours, individual plants 4-6) was 2729 and 745.3 and 2373. For the same molecule, the “fold induction after treatment with tebufenozide” value in data set [2] (maize, in vivo, 18 h, 0.2 mM) is on record as 10-40 fold. Further, the “induction above the ethanol controls” value in data set [2] (transgenic maize plants, 40 hours) is given as “significant induction”. Also, the “Fold Induction” value in data set [3] (in vivo) is listed as 116 Fold; in data set [3] (leaf, late stage post pollinated maize plants, tebufenozide vs ethanol), 30 Fold. For the same molecule, the “Total Photons Counted” value in data set [3] (leaf, late stage post pollinated maize plants) was 110,766; in data set [3] (leaf, plants at V5 stage, 2.0 mM RH5992 in 1% surfactant, 24-48 hours), 187,784.

B1: EBV (protein)
chain: MGREELSPASSVNGCSTDGEARRQKKGPAPRQQEELCLVCGDRASGYHYNALTCEGCKGFFRRSVTKNAVYICKFGHACEMDMYMRRKCQECRLKKCLAVGMRPECVVPETQCAQKRKEKKAQREKDKLPVSTTTVDDHMPPIMQCDPPPPEAARILECLQHEVVPRFLSEKLMEQNRLKNIPPLTANQQFLIARLVWYQEGYEQPSEEDLKRVTQTWQSDEDEEESDMPFRQITEMTILTVQLIVEFAKGLPGFAKISQSDQITLLKACSSEVMMLRVARRYDAATDSVLFANNQAYSRDNYRKAGMSYVIEDLLHFCRCMYSMMMDNVHYALLTAIVIFSDRPGLEQPLLVEEIQRYYLNTLRVYILNQNSASPRCPVVFAKILGILTELRTLGMQNSNMCISLKLKNRKLPPFLEEIWDVESRGKLAPPTDVSLGDELHLDGEDVAMAHADALDDFDLDMLGDGDSPGPGFTPHDSAPYGALDMADFEFEQMFTDALGIDEYGG
As for B1, in the data set with pCGS154 reporter, the “Fold Activation With Chemistry Assay #1” value was 975.0 fold and the “Fold Activation With Chemistry Assay #2” value amounted to 273.7 fold.

B2: DBV: EcR chimera: Drosophila melanogaster C+D domains, black cutworm E domain, VP16; SEQ ID NO:73-74 (protein)
chain: MGRDDLSPSSSLNGYSANESCDAKKSKKGPAPRVQEELCLVCGDRASGYHYNALTCEGCKGFFRRSVTKSAVYCCKFGRACEMDMYMRRKCQECRLKKCLAVGMRPECVVPENQCAMKRREKKAQKEKDKMTTSPSSQHGGNGSLASGGGQDFVKKEILDLMTCEPPQHATIPLLPDEILAKCQARNIPSLTYNQLAVIYKLIWYQEGYEQPSEEDLKRVTQTWQSDEDEEESDMPFRQITEMTILTVQLIVEFAKGLPGFAKISQSDQITLLKACSSEVMMLRVARRYDAATDSVLFANNQAYSRDNYRKAGMSYVIEDLLHFCRCMYSMMMDNVHYALLTAIVIFSDRPGLEQPLLVEEIQRYYLNTLRVYILNQNSASPRCPVVFAKILGILTELRTLGMQNSNMCISLKLKNRKLPPFLEEIWDVESRGKLAPPTDVSLGDELHLDGEDVAMAHADALDDFDLDMLGDGDSPGPGFTPHDSAPYGALDMADFEFEQMFTDALGIDEYGG
As to B2, in the data set on pCGS154 reporter, the “Fold Activation With Chemistry Assay #1” value turned out to be 17.37 fold and the “Fold Activation With Chemistry Assay #2” value was determined as 3.94 fold.

B3: CCV: EcR chimera: Chironomus tentans C+D and E domains, VP16; SEQ ID NO:87-88 (protein)
chain: MKLDDGNMSVHMGDGLDGKKSSSKKGPVPRQQEELCLVCGDRASGYHYNALTCEGCKGFFRRSVTKNAVYCCKFGHECEMDMYMKRKCQECRLKKCLAVGMRPECVVPENQCAIKRKEKKAQKEKDKVPGIVGSNTSSSSLLNQSLNNGSLKNLEISYREELLEQLMKCDPPPHPMQQLLPEKLLMENRAKGTPQLTANQVAVIYKLIWYQDGYEQPSEEDLKRITTELEEEEDQEHEANFRYITEVTILTVQLVVEFAKGLPAFIKIPQEDQITLLKACSSEVMMLRMARRYDHDSDSILFANNTAYTKQTYQLAGMEETIDDLLHFCRQMYALSIDNVEYALLTAIVIFSDRPGLEKAEMVDIIQSYYTETLKVYIANRHGGESRCSVQFAKLLGILTELRTMGNKNSEMCFSLKLRNRKLPRFLEEVWDVGDVKLAPPTDVSLGDELHLDGEDVAMAHADALDDFDLDMLGDGDSPGPGFTPHDSAPYGALDMADFEFEQMFTDALGIDEYGG
B3: in the data set on pCGS154 reporter, the “Fold Activation With Chemistry” value worked out at 2.0 fold.

B4: MCV: EcR chimera: Manduca sexta C+D domains, Chironomus tentans E domain, VP16; SEQ ID NO:91-92 (protein)
chain: MGREELSPASSINGCSTDGEPRRQKKGPAPRQQEELCLVCGDRASGYHYNALTCEGCKGFFRRSVTKNAVYICKFGHACEMDMYMRRKCQECRLKKCLAVGMRPECVVPESTCKNKRREKEAQREKDKLPVSTTTVDDHMPAIMQCDPPPPEAARIHEVVPRFLTEKLMEQNRLKNVTPLSANQKSLIARLVWYQDGYEQPSEEDLKRITTELEEEEDQEHEANFRYITEVTILTVQLVVEFAKGLPAFIKIPQEDQITLLKACSSEVMMLRMARRYDHDSDSILFANNTAYTKQTYQLAGMEETIDDLLHFCRQMYALSIDNVEYALLTAIVIFSDRPGLEKAEMVDIIQSYYTETLKVYIANRHGGESRCSVQFAKLLGILTELRTMGNKNSEMCFSLKLRNRKLPRFLEEVWDVGDVKLAPPTDVSLGDELHLDGEDVAMAHADALDDFDLDMLGDGDSPGPGFTPHDSAPYGALDMADFEFEQMFTDALGIDEYGG
As for B4, in the data set with pCGS154 reporter, the “Fold Activation With Chemistry” value was 553.3 fold.

(Values after US6958236B2, “Control of gene expression in plants” (priority 2000, dated 2005).)
